In patent US8450479B2, “3-substituted-4-oxo-3,4-dihydro-imidazo[5,1-d][1,2,3,5-tetrazine-8-carboxylic acid amides and their use” (Pharminox Limited, priority 2007, dated 2013):
Values joined by “and” are separate entries in the source; they are usually repeats but may differ in a detail not shown here. Identical values can stand only once. Counter-ions that a name gives are not always drawn. Like-named read-outs stand apart in the source and are kept apart here.

Tests used:
Assay in all cases: MTT assay for 7-day toxicity assay
Assay type in all cases: cell-based
Glioma SNB19M (MGMT+) = settings: Glioma SNB19M (MGMT+), 7-day MTT, single determinations, read-out: GI50
Method: (§1) The cell culture techniques were carried out in a Class II microbiological safety cabinet which was swabbed with 70% IMS in distilled water before each use. […] MRC-5 cells were cultured in EMEM. Cells were grown in a humidified incubator containing 5% CO2 at 37° C. Cells were sub-cultured when growth exceeded approximately 80% confluence, normally twice weekly. The medium was aspirated from the flask and approximately 0.8 mL trypsin-EDTA 1× solution added. The cells were re-incubated at 37° C. until they visibly detached from the flask. The cell suspension was then re-suspended in 5 mL medium and 0.5-1 mL of the cell suspension was transferred to a new flask (25 cm^2) with 7 mL culture medium. The cells were further incubated at 37° C. incubator. Cells were disposed after passage nearly 30 times in order to minimize phenotypic drift. New batches of cells were taken from liquid nitrogen storage by thawing rapidly (37° C. water bath) and re-suspension in a 25 cm^2 flask with 10 mL of culture medium. Two passages were allowed to resume normal growth. For long-term maintenance, viable cells at 60-80% confluence were detached by minimum amount of trypsin/EDTA and re-suspended in sterile filtered freezing medium (95% FBS, 5% DMSO), transferred to sterile cryogenic vials, and frozen overnight at −20° C. followed by −80° C. for 1-2 days and stored in liquid nitrogen for long term storage.
(§2) Most test compounds, including temozolomide, were prepared as stock solution (100 mM) in DMSO and stored at −20° C. for not more than 6 months.
(§3) Glioma cell lines, SNB19 and U373, both MGMT transfected (i.e., SNB19M and U373M) and vector controls (i.e., SNB19V and U373V); colorectal carcinoma cell lines, HCT116, HT29, and DLD1; melanoma cell line, SKMEL-28; breast cell line, MCF-7; and normal human fetal lung fibroblast cell line, MRC-5; were harvested at 60-80% confluence—during the logarithmic phase of growth.
(§4) Following harvesting, cells in suspension were gently syringed through a 23 gauge needle to obtain a near-single cell suspension. The desired cell seeding densities were used and added into 96-well plates in 180 μL culture medium if only one test compound was to be added, or 160 μL if two test compounds were to be added in combination, which were allowed to attach at 37° C. (5% CO2) overnight. For the 7 day assay, the cell seeding density for different cell lines was as follows: SNB19V, SNB19M: 650 cells/well; U373V, U373M: 650 cells/well; SNB19VR, U373VR: 650 cells/well; HCT116, DLD-1, SKMEL-28, MRC-5, MCF-7: 400 cells/well.
(§5) The two peripheral lanes were used as blank wells (cell free) and filled with 200 μL of medium in order to minimise medium evaporation from the plate. A separate time zero (T0) plate was set up alongside other plates. Serial dilutions in tissue culture medium of a 100 mM stock of test compound in DMSO were prepared immediately before each assay to ten times the final concentrations required, and then 20 μL was added to each well (200 μL total media per well) to achieve final concentrations of 0.5 μM, 1 μM, 5 μM, 10 μM, 50 μM, 100 μM, 500 μM, and 1000 μM. A minimum of four wells received the same test compound concentration. To control wells, including those in the T0 plate, 20 μL of medium was added. […] A separate plate treated in the same way, but free of test compound, was used as a measure of cell viability at the time of drug addition (day 0).
(§6) After incubation at 37° C., 5% CO2 for 7 days (or immediately for the day 0 plate), cell viability was quantified using the MTT assay. 50 μL of sterile filtered MIT (3-(4,5-dimethylthiazol-2-yl)-2,5-diphenyltetrazolium bromide) (2 mg/mL in phosphate buffered saline) were added to each well (final concentration 0.4 mg/mL) and the plates were re-incubated for 4 hours to allow metabolic conversion of MTT by dehydrogenases in viable cells to insoluble formazan crystals.
(§7) The intensity of absorbance is directly proportional to cell viability.

Glioma SNB19V (MGMT−) = settings: Glioma SNB19V (MGMT−), 7-day MTT, single determinations, read-out: GI50
Method: as §1, §2, §3, §4, §5, §6, §7

Glioma U373M (MGMT+) = settings: Glioma U373M (MGMT+), 7-day MTT, single determinations, read-out: GI50
Method: as §1, §2, §3, §4, §5, §6, §7

Glioma U373V (MGMT low) = settings: Glioma U373V (MGMT low), 7-day MTT, single determinations, read-out: GI50
Method: as §1, §2, §3, §4, §5, §6, §7

Row | SMILES | GI50 (Glioma SNB19M (MGMT+); 168 h) | GI50 (Glioma SNB19M (MGMT+)) | GI50 (Glioma SNB19V (MGMT−); 168 h) | GI50 (Glioma SNB19V (MGMT−)) | GI50 (Glioma U373M (MGMT+); 168 h) | GI50 (Glioma U373M (MGMT+)) | GI50 (Glioma U373V (MGMT low); 168 h) | GI50 (Glioma U373V (MGMT low)) | GI50 (Glioma SNB19V (MGMT−); hydrobromide) | GI50 (Glioma U373M (MGMT+); hydrobromide)
1 | NC(=O)c1ncn2c(=O)n(Cc3c[nH]nn3)nnc12 [CC-005, 4-Oxo-3-(1H-[1,2,3]triazol-4-ylmethyl)-3,4-dihydro-imidazo[5,1-d][1,2,3,5]tetrazine-8-carboxylic acid amide] | 257 µM | 409 µM | 357 µM | 239 µM | 334 µM | 330 µM | 261 µM | 400 µM |  | 
2 | CN(C)C(=O)Cn1nnc2c(C(N)=O)ncn2c1=O [JJ-003, N,N-Dimethyl (8-Carbamoyl-oxoimidazo[5,1-d][1,2,3,5]tetrazin-3(4H)-yl)ethanamide] | 78.6 µM | 68.1 µM | 73.6 µM | 61.8 µM | 98.6 µM | 86.4 µM | 92.4 µM | 77.8 µM |  | 
3 | NC(=O)c1ncn2c(=O)n(CC3CCCCC3)nnc12 [GG-001, 3-Cyclohexylmethyl-8-carbamoylimidazotetrazin-4-one] | 831 µM | 445 µM |  |  |  |  | 717 µM | > 1000 µM |  | 
4 | COc1ccc([C@@H](C)n2nnc3c(C(N)=O)ncn3c2=O)cc1 [BB-003, (R)-3-(−1-(4-Methoxyphenyl)ethyl)-8-carbamoylimidazotetrazin-4-one] | 72.3 µM | 97.1 µM | 55.8 µM | 93.7 µM |  |  | 71 µM | 138 µM |  | 
5 | CC(C)(C)C(=O)OCn1nnc2c(C(N)=O)ncn2c1=O [LL-004, 2,2-Dimethyl-propionic acid 8-carbamoyl-4-oxo-imidazo[5,1-d][1,2,3,5]tetrazin-3-ylmethyl ester] |  |  | 47.2 µM | 35.9 µM and 51.9 µM |  |  |  |  |  | 
6 | CC(c1ccc(Br)cc1)n1nnc2c(C(N)=O)ncn2c1=O (racemic) [BB-005, (+/−) 3-(-1-(4-Bromophenyl)ethyl)-8-carbamoylimidazotetrazin-4-one] |  |  | 42 µM | 80.2 µM and 81 µM and 70.2 µM |  |  |  |  |  | 
7 | Cc1noc(Cn2nnc3c(C(N)=O)ncn3c2=O)n1 [CC-003, 3-(3-Methyl-[1,2,4]oxadiazol-5-ylmethyl)-4-oxo-3,4-dihydro-imidazo[5,1-d][1,2,3,5]tetrazine-8-carboxylic acid amide] | 198 µM | 208 µM | 208 µM | 176 µM | 196 µM | 391 µM |  |  |  | 
8 | Cc1cc(Cn2nnc3c(C(N)=O)ncn3c2=O)on1 [CC-004, 3-(3-Methyl-isoxazol-5-ylmethyl)-4-oxo-3,4-dihydro-imidazo[5,1-d][1,2,3,5]tetrazine-8-carboxylic acid amide] |  |  | 38 µM | 54.9 µM | 29.3 µM |  |  |  |  | 
9 | NC(=O)CCn1nnc2c(C(N)=O)ncn2c1=O [JJ-004, 3-(8-Carbamoyl-oxoimidazo[5,1-d][1,2,3,5]tetrazin-3(4H)-yl)propanamide] | 417 µM | 281 µM | 348 µM | 294 µM |  |  |  |  |  | 
10 | NC(=O)c1ncn2c(=O)n(C3CCNCC3)nnc12 [HH-001, 3-Piperidin-4-yl-8-carbamoylimidazotetrazin-4-one hydrobromide] |  |  | 167 µM |  | 72 µM |  |  |  | 190 µM | 115 µM
